Like-named read-outs stand apart in the source and are kept apart here.
What was measured:
ATR/ATRIP = molecular target: T1, ATR/ATRIP (Homo sapiens, UniProt Q13535); assay: ATR/ATRIP kinase assay (TR-FRET, p53 phosphorylation); assay type: biochemical
T1 construct: human ATR, full length, GenBank ID: NM_001184.3; p53: Sf21 insect cells
Protocol: ATR/ATRIP Kinase Assay—Measurement of ATR/ATRIP Inhibition
The IC50 value was determined by an ATR/ATRIP enzymatic assay. The assay comprises two steps: the enzymatic reaction and the detection step. First, a mixture of ATR/ATRIP protein (Ataxia Telangiectasia and Rad3-related protein/ATR interacting protein), the compound in question at different concentrations, p53 as substrate protein and adenosine triphosphate (ATP) are incubated in assay buffer. ATR phosphorylates p53 at Ser15 and other residues. The amount of phosphorylated p53 is then detected using specific antibodies and the TR-FRET assay technology.
In detail: The ATR/ATRIP enzymatic assay is performed as a TR-FRET-(HTRF™, Cisbio Bioassays) based 384-well assay. In a first step, purified human recombinant ATR/ATRIP (human ATR, full length, GenBank ID: NM_001184.3, and human ATRIP, full length, GenBank ID AF451323.1, co-expressed in a mammalian cell line) is incubated in assay buffer for 15 minutes at 22° C. with test compound at different concentrations or without test compound (as a negative control). The assay buffer contains 25 mM HEPES pH 8.0, 10 mM Mg(CH3COO)2, 1 mM MnCl2, 0.1% BSA, 0.01% Brij® 35, and 5 mM dithiothreitol (DTT). […] Then, in a second step, purified human recombinant cmyc-tagged p53 (human p53, full length, GenBank ID: BC003596, expressed in Sf21 insect cells) and ATP are added and the reaction mixture is incubated for 25-35 minutes, typically 25 minutes, at 22° C. The pharmacologically relevant assay volume is 5 μl. The final concentrations in the assay during incubation of the reaction mixture are 0.3-0.5 nM, typically 0.3 nM, ATR/ATRIP, 50 nM p53, and 0.5 μM ATP. The enzymatic reaction is stopped by the addition of EDTA. […] Following signal development for 2 h the plates are analyzed in an EnVision (PerkinElmer) microplate reader using the TRF mode with laser excitation. […] Data are processed employing the Genedata Screener software. In particular, IC50 values are determined in the usual manner by fitting a dose-response curve to the data points using nonlinear regression analysis.

[1] = test system: phosphorylation of Chk1 (Ser 345) in HT29 colon adenocarcinoma cells; assay: pCHK1 cellular assay; assay type: cell-based; conditions: Homo sapiens, HT-29, Table 1, class symbols, hydroxyurea
Description: Chk1 kinase acts downstream of ATR and has a key role in DNA damage checkpoint control. Activation of Chk1 involves phosphorylation of Ser317 and Ser345 (regarded as the preferential target for phosphorylation/activation by ATR) and occurs in response to blocked DNA replication and certain forms of genotoxic stress. Phosphorylation at Ser 345 serves to localize Chk1 to the nucleus following checkpoint activation.
This assay measures a decrease in phosphorylation of Chk1 (Ser 345) in HT29 colon adenocarcinoma cells following treatment with compound and hydroxyurea (which promotes fork stalling because of dNTP depletion) and using an immunocytochemical procedure and high content imaging.
For the assay HT29 cells are plated in culture medium (DMEM high Glucose (no phenol red), 2 mM Glutamax, 1 mM Pyruvate, 10% FCS into Greiner 384 well plates, black, μclear #781090 (2500 cells/well/30 μl) and incubated for at least 20 hours at 37° C., 10% CO2 and 90% rH. Diluted test compounds (1 nM-30 μM final) and hydroxyurea (3 mM final) are added simultaneously and cells are incubated for 4 h at 37° C. After fixation/prmeabilisation with 100% MeOH (−20° C. cold) and permeabilisation with 0.2% Triton X-100 a complete immunocytochemical procedure is performed using a specific anti-pChk1 antibody (Cell Signaling, #2348BF) and fluorescently labelled secondary antibody (Alexa Fluor® 488 goat anti-rabbit F(ab′)2 fragment, Invitrogen A11070) and parallel nuclear staining for cell counting.
The nuclear localised pChk1 signal is detected on an ImageXpress Ultra confocal high content reader and reported as % positive cells (nuclei).

[2] = Table 1, class symbols, read-out: ATR-ATRIP IC50

T1 sequence (Q13535 whole entry): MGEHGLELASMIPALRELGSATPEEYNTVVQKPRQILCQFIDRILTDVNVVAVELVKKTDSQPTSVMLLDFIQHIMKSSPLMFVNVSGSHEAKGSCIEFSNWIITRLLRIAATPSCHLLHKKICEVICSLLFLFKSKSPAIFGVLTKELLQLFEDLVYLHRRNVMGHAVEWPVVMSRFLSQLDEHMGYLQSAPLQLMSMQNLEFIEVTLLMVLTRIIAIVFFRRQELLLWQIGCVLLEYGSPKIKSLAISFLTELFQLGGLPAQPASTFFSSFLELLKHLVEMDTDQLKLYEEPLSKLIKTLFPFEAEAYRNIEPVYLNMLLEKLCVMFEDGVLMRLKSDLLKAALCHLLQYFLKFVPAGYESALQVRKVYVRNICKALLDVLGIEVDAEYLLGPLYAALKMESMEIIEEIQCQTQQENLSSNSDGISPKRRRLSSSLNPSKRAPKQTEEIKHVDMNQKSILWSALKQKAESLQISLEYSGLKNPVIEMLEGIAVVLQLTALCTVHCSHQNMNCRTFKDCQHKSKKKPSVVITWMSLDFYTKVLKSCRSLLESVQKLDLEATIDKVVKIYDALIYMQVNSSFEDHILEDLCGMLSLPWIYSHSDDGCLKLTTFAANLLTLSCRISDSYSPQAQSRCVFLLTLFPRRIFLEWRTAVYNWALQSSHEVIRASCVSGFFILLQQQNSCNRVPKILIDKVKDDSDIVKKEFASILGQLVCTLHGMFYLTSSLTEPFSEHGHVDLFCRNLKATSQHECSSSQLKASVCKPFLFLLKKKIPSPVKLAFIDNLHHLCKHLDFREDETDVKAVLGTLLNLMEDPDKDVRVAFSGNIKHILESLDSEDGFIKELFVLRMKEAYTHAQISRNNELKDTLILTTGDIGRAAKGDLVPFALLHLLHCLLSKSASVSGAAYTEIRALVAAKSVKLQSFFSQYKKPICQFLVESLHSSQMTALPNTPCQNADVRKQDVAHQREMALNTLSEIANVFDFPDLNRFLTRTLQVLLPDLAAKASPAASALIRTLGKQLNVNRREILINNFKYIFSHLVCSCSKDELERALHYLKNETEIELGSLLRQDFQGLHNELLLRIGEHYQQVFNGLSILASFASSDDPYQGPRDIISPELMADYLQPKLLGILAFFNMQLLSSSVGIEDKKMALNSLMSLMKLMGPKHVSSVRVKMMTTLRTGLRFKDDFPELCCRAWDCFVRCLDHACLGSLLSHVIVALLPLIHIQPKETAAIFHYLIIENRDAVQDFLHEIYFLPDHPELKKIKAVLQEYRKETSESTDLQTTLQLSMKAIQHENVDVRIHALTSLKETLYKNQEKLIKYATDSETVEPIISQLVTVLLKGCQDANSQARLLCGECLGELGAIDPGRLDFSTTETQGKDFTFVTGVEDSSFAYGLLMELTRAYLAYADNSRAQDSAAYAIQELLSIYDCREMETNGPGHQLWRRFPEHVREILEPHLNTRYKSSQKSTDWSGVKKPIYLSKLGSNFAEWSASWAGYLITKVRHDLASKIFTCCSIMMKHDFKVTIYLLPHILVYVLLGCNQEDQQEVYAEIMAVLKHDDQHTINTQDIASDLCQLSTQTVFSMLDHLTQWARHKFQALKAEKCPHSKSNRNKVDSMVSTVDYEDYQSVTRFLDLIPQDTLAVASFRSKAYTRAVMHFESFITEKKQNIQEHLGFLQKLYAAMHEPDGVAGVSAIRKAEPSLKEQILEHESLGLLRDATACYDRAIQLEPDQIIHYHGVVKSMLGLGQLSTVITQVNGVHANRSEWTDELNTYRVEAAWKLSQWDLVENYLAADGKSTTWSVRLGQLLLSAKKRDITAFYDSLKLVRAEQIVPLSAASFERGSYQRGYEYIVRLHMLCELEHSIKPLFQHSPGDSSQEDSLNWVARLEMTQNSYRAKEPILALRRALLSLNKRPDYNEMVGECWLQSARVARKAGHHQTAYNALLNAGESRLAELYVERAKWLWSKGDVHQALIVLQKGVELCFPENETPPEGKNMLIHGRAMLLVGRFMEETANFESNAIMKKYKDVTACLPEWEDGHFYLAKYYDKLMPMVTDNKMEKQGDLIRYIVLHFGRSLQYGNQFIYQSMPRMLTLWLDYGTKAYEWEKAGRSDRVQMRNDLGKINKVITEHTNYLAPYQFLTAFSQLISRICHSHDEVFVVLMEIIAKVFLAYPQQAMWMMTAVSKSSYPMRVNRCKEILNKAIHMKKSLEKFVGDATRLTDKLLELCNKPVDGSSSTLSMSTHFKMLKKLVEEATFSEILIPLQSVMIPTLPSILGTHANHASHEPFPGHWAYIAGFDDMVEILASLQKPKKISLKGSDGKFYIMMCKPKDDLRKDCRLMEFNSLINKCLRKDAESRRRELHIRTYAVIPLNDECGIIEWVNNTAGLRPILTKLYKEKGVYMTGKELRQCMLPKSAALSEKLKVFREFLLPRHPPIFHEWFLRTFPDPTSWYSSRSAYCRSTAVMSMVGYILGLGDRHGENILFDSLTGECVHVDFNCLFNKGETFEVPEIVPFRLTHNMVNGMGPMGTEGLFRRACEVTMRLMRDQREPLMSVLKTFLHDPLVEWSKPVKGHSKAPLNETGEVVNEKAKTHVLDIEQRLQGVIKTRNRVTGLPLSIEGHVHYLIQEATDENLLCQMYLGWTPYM
T1 sequence (Q8WXE1 whole entry partner): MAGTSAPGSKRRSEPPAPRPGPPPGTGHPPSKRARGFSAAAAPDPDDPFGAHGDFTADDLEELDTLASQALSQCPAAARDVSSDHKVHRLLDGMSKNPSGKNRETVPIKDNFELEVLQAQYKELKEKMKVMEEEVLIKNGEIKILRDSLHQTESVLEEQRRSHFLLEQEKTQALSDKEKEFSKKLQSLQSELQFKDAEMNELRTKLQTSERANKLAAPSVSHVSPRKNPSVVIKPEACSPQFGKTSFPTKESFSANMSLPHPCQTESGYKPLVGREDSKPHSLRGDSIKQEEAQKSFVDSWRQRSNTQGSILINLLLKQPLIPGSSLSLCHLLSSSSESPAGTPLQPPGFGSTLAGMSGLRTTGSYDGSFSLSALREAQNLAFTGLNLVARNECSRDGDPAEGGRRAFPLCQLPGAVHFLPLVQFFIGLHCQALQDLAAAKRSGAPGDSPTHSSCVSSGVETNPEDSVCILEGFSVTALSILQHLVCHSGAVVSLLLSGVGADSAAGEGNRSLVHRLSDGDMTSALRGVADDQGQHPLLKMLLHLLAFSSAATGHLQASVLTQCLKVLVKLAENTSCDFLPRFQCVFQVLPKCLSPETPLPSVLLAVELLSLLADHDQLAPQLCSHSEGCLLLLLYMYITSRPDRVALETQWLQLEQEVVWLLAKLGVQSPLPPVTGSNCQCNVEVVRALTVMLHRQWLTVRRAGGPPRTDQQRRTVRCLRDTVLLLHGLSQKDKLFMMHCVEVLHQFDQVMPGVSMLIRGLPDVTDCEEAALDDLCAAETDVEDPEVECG

| IC50 (ATR/ATRIP; [2]) [nM] | IC50 [1] [nM] | SMILES | IC50 (ATR/ATRIP) [nM] |
| --- | --- | --- | --- |
| 1 to 10 | 100 to 1000 | CNc1nc2ccccc2n1-c1nc2c(c(C(C)(C)S(C)(=O)=O)n1)OC[C@H]1COC[C@@H](C)N21 [A8, {1-[(5R,8aR)-1-(1-Methanesulfonyl-1-methyl-ethyl)-5-methyl-5,6,8a,9-tetrahydro-8H-7,10-dioxa-2,4,4b-triaza-phenanthren-3-yl]-1H-benzimidazol-2-yl}-methyl-amine] |  |
| < 1 | < 10 | CNc1ncc2[nH]ccc2c1-c1nc2c(c(C(C)(C)S(C)(=O)=O)n1)OC[C@@H]1COC[C@@H](C)N21 [A27, {4-[(5R,8aS)-1-(1-Methanesulfonyl-1-methyl-ethyl)-5-methyl-5,6,8a,9-tetrahydro-8H-7,10-dioxa-2,4,4b-triaza-phenanthren-3-yl]-1H-pyrrolo[2,3-c]pyridin-5-yl}-methyl-amine] |  |
| < 1 | 10 to 100 | C[C@@H]1COC[C@H]2COc3c(nc(-c4c(F)ncc5[nH]ccc45)nc3C(C)(C)S(C)(=O)=O)N21 [A29, (5R,8aS)-3-(5-Fluoro-1H-pyrrolo[2,3-c]pyridin-4-yl)-1-(1-methanesulfonyl-1-methyl-ethyl)-5-methyl-5,6,8a,9-tetrahydro-8H-7,10-dioxa-2,4,4b-triaza-phenanthrene] |  |
| < 1 | 10 to 100 | CC(=O)Nc1nc2ccccc2n1-c1nc2c(c(C(C)(C)S(C)(=O)=O)n1)OC[C@@H]1COC[C@@H](C)N21 [A34, N-{1-[(10S,14R)-6-(2-Methanesulfonylpropan-2-yl)-14-methyl-8,12-dioxa-1,3,5-triazatricyclo[8.4.0.0^2,7]tetradeca-2,4,6-trien-4-yl]-1H-1,3-benzodiazol-2-yl}acetamide] |  |
| < 1 | 100 to 1000 | C[C@@H]1COC[C@H]2COc3c(nc(-c4c(N)cnc5[nH]ccc45)nc3C3(S(C)(=O)=O)CC3)N21 [A37, 4-[(10S,14R)-6-(1-methanesulfonylcyclopropyl)-14-methyl-8,12-dioxa-1,3,5-triazatricyclo[8.4.0.0^2,7]tetradeca-2,4,6-trien-4-yl]-1H-pyrrolo[2,3-b]pyridin-5-amine] |  |
| < 1 | 10 to 100 | C[C@@H]1COC[C@H]2COc3c(nc(-c4cncc5[nH]ccc45)nc3C(C)(C)S(C)(=O)=O)N21 [A39, (5R,8aS)-1-(1-methanesulfonyl-1-methyl-ethyl)-5-methyl-3-(1H-pyrrolo[2,3-c]pyridin-4-yl)-5,6,8a,9-tetrahydro-8H-7,10-dioxa-2,4,4b-triaza-phenanthrene] |  |
| 1 to 10 | 10 to 100 | [2H]C([2H])([2H])Nc1cnc2[nH]ccc2c1-c1nc2c(c(C(C)(C)S(C)(=O)=O)n1)OC[C@@H]1COC[C@@H](C)N21 [A42, 4-[(10S,14R)-6-(2-methanesulfonylpropan-2-yl)-14-methyl-8,12-dioxa-1,3,5-triazatricyclo[8.4.0.0^2,7]tetradeca-2,4,6-trien-4-yl]-N-(^2H3)methyl-1H-pyrrolo[2,3-b]pyridin-5-amine] |  |
| < 1 | 100 to 1000 | C[C@@H]1COC[C@H]2COc3c(nc(-c4ccc(-c5ncc[nH]5)cc4)nc3C(C)(C)S(C)(=O)=O)N21 [A44, (10S,14R)-4-[4-(1H-imidazol-2-yl)phenyl]-6-(2-methanesulfonylpropan-2-yl)-14-methyl-8,12-dioxa-1,3,5-triazatricyclo[8.4.0.0^2,7]tetradeca-2,4,6-triene] |  |
| < 1 | 10 to 100 | C[C@@H]1COC[C@H]2COc3c(nc(-c4ccc(CN)cc4)nc3C(C)(C)S(C)(=O)=O)N21 [A46, 4-[(5R,8aS)-1-(1-methanesulfonyl-1-methyl-ethyl)-5-methyl-5,6,8a,9-tetrahydro-8H-7,10-dioxa-2,4,4b-triaza-phenanthren-3-yl]-benzylamine] |  |
| 500 to 30000 | 1000 to 30000 | C[C@@H]1COC[C@H]2COc3c(nc(-c4cccc(C5(N)COC5)c4)nc3C(C)(C)S(C)(=O)=O)N21 [A64, 3-{3-[(5R,8aS)-1-(1-methanesulfonyl-1-methyl-ethyl)-5-methyl-5,6,8a,9-tetrahydro-8H-7,10-dioxa-2,4,4b-triaza-phenanthren-3-yl]-phenyl}-oxetan-3-ylamine] |  |
| 10 to 100 | 1000 to 30000 | C[C@@H]1COC[C@H]2COc3c(nc(-c4cc5cc(F)ncc5[nH]4)nc3C(C)(C)S(C)(=O)=O)N21 [A67, (5R,8aS)-3-(5-fluoro-1H-pyrrolo[2,3-c]pyridin-2-yl)-1-(1-methanesulfonyl-1-methyl-ethyl)-5-methyl-5,6,8a,9-tetrahydro-8H-7,10-dioxa-2,4,4b-triaza-phenanthrene] |  |
| 10 to 100 | 100 to 1000 | C[C@@H]1COC[C@H]2COc3c(nc(Nc4cn[nH]n4)nc3C(C)(C)S(C)(=O)=O)N21 [A69, [(5R,8aS)-1-(1-methanesulfonyl-1-methyl-ethyl)-5-methyl-5,6,8a,9-tetrahydro-8H-7,10-dioxa-2,4,4b-triaza-phenanthren-3-yl]-(2H[1,2,3]triazol-4-yl)-amine] |  |
| < 1 | 100 to 1000 | C[C@@H]1COC[C@H]2COc3c(nc(-c4ccc5nc(N)ccc5c4)nc3C(C)(C)S(C)(=O)=O)N21 [A72, 6-[(5R,8aS)-1-(1-methanesulfonyl-1-methyl-ethyl)-5-methyl-5,6,8a,9-tetrahydro-8H-7,10-dioxa-2,4,4b-triaza-phenanthren-3-yl]-quinolin-2-ylamine] |  |
| < 1 | 10 to 100 | C[C@@H]1COC[C@H]2COc3c(nc(Nc4ccn[nH]4)nc3C(C)(C)S(C)(=O)=O)N21 [A73, [(5R,8aS)-1-(1-methanesulfonyl-1-methyl-ethyl)-5-methyl-5,6,8a,9-tetrahydro-8H-7,10-dioxa-2,4,4b-triaza-phenanthren-3-yl]-(2H-pyrazol-3-yl)-amine] |  |
| 10 to 100 | 10 to 100 | C[C@@H]1COC[C@H]2COc3c(nc(N(C)c4ccn[nH]4)nc3C(C)(C)S(C)(=O)=O)N21 [A74, [(5R,8aS)-1-(1-methanesulfonyl-1-methylethyl)-5-methyl-5,6,8a,9-tetrahydro-8H-7,10-dioxa-2,4,4b-triaza-phenanthren-3-yl]-methyl-(2H-pyrazol-3-yl)-amine] |  |
| 10 to 100 | 100 to 1000 | C[C@@H]1COC[C@H]2COc3c(nc(-c4ccc5nc(N)ncc5c4)nc3C(C)(C)S(C)(=O)=O)N21 [A78, 6-[(5R,8aS)-1-(1-methanesulfonyl-1-methyl-ethyl)-5-methyl-5,6,8a,9-tetrahydro-8H-7,10-dioxa-2,4,4b-triaza-phenanthren-3-yl]-quinazolin-2-ylamine] |  |

| SMILES | IC50 (ATR/ATRIP; [2]) [nM] | IC50 [1] [nM] | IC50 (ATR/ATRIP) [nM] |
| --- | --- | --- | --- |
| C[C@@H]1COC[C@H]2COc3c(nc(-c4ccc(C5(CO)CN5)cc4)nc3C(C)(C)S(C)(=O)=O)N21 (stereo partly drawn) [A61, (2-{4-[(5R,8aS)-1-(1-methanesulfonyl-1-methyl-ethyl)-5-methyl-5,6,8a,9-tetrahydro-8H-7,10-dioxa-2,4,4b-triaza-phenanthren-3-yl]-phenyl}-aziridin-2-yl)-methanol] |  | 1000 to 30000 | 500 to 30000 |
| C[C@@H]1COC[C@H]2COc3c(nc(-c4cccc(C5(CO)CN5)c4)nc3C(C)(C)S(C)(=O)=O)N21 (stereo partly drawn) [A63, (2-{3-[(5R,8aS)-1-(1-methanesulfonyl-1-methyl-ethyl)-5-methyl-5,6,8a,9-tetrahydro-8H-7,10-dioxa-2,4,4b-triaza-phenanthren-3-yl]-phenyl}-aziridin-2-yl)-methanol] |  | 1000 to 30000 | 500 to 30000 |

Reference: patent US10570149B2, “Tricyclic heterocylic derivatives” (MERCK PATENT GMBH, priority 2016, dated 2020)
